According to US6617140B2:
“Also recorded” adds a separate entry of the source. Read-outs that look alike come from different tables or passages of the source.

How the values were obtained:
L-proline-4-hydroxylase = L-proline-4-hydroxylase (Dactylosporangium salmoneum, UniProt A0ABP5TRQ3); assay: Substrate omission and addition tests on the enzyme reaction (indispensable compounds, promoters, inhibitors); assay type: biochemical, Dactylosporangium sp. RH1; details: for Relative Activity: 80 mM TES pH 7.5, 30° C., 15 minutes, standard reaction mixture = 100; for activity of the enzyme in the presence of the ion, of the original activity: ion at 1 mM
Method: The reaction was initiated by addition of the enzyme and continued for 15 minutes at 30° C. The reaction was stopped by heating the reaction mixture at 100° C. for 2 minutes. […] The reaction was stopped by adding 30 μl of 1 N HCl to the reaction mixture, and the precipitates formed were removed therefrom by centrifugation and filtration.
The HPLC for the determination was carried out under the following conditions: […]

[1] = substrate: O=C(O)CCC(=O)C(=O)O; assay: purified protein, by the assay type; details: other: 80 mM MES buffer (pH 6.5), 4 mM L-ascorbic acid, 2 mM ferrous sulfate
[2] = substrate: O=C(O)[C@@H]1CCCN1; assay: purified protein, by the assay type; details: other: 80 mM MES buffer (pH 6.5), 4 mM L-ascorbic acid, 2 mM ferrous sulfate

O=C(O)CCC(=O)C(=O)O [2-ketoglutaric acid]
need of the component for the enzyme reaction (in words) (L-proline-4-hydroxylase): indispensable
Relative Activity (L-proline-4-hydroxylase; component not added (omitted)): 0

[Cu+2] [Cu^++]
inhibition of the enzyme activity/reaction (in words) (L-proline-4-hydroxylase): inhibit the reaction; also recorded: inhibited
Relative Activity (L-proline-4-hydroxylase; component added at 1 mM): 13
activity of the enzyme in the presence of the ion, of the original activity (L-proline-4-hydroxylase): 13%

O=C(O)CN(CCN(CC(=O)O)CC(=O)O)CC(=O)O [EDTA, ethylenediaminetetraacetic acid]
inhibition of the enzyme activity/reaction (in words) (L-proline-4-hydroxylase): inhibit the reaction
activity of the enzyme in the presence of EDTA (L-proline-4-hydroxylase; 5 mM EDTA): no activity of the enzyme was detected
Relative Activity (L-proline-4-hydroxylase; component added at 5 mM): 0
inhibition of the enzyme activity/reaction (in words) (L-proline-4-hydroxylase; listed as ethylenediaminetetraacetic acid): inhibited

[Fe+2] [Fe^++]
need of the component for the enzyme reaction (in words) (L-proline-4-hydroxylase): indispensable
Relative Activity (L-proline-4-hydroxylase; component not added (omitted)): 0

O=C1O[C@H]([C@@H](O)CO)C(O)=C1O [L-ascorbic acid]
promotion of the enzyme activity/reaction (in words) (L-proline-4-hydroxylase): promotes the reaction
Relative Activity (L-proline-4-hydroxylase; component not added (omitted)): 51
promotion of the enzyme activity/reaction (in words) (L-proline-4-hydroxylase; listed as Ascorbic acid): promotes the activity of the enzyme
promotion of the enzyme activity/reaction (in words) (L-proline-4-hydroxylase; listed as L-Ascorbic acid): accelerates the activity of the enzyme

O=C(O)[C@@H]1CCCN1 [L-proline]
need of the component for the enzyme reaction (in words) (L-proline-4-hydroxylase): indispensable
Relative Activity (L-proline-4-hydroxylase; component not added (omitted)): 0

[Zn+2] [Zn^++]
inhibition of the enzyme activity/reaction (in words) (L-proline-4-hydroxylase): inhibit the reaction; also recorded: inhibited
Relative Activity (L-proline-4-hydroxylase; component added at 1 mM): 6
activity of the enzyme in the presence of the ion, of the original activity (L-proline-4-hydroxylase): 6%

Catalase
Relative Activity (L-proline-4-hydroxylase; component not added (omitted)): 93

B1: L-proline-4-hydroxylase (Dactylosporangium salmoneum) (protein)
chain: MLTPTELKQYREAGYLLIEDGLGPREVDCLRRAAAALYAQDSPDRTLEKDGRTVRAVHGCHRRDPVCRDLVRHPRLLGPAMQILSGDVYVHQFKINAKAPMTGDVWPWHQDYIFWAREDGMDRPHVVNVAVLLDEATHLNGPLLFVPGTHELGLIDVERRAPAGDGDAQWLPQLSADLDYAIDADLLARLTAGRGIESATGPAGSILLFDSRIVHGSGTNMSPHPRGVVLVTYNRTDNALPAQAAPRPEFLAARDATPLVPLPAGFALAQPV
Km [1]: 0.55 mM
Km [2]: 0.27 mM
